Laboratory results reported in patent EP3178809A1, “HYBRID MOLECULE WITH STRUCTURAL AND ACTIVITY ELEMENTS OF RESVERATROL AND DIALLYL SULFIDE” (Albert-Ludwigs-Universität Freiburg, priority 2015, dated 2017).
Entries after “also recorded” stand apart in the source; their conditions may differ.

Legend:
[1] = tested on: humane Magenkarzinomzellen MKN-45; test: Apoptosis induction in tumour cells (morphological criteria, duplicate assays); assay type: cell-based, human; conditions: MKN-45, apoptosis
Method: Nach 3 Stunden bei 37 ° C, 5 % CO2 wurden die Prozentsätze apoptotischer Zellen bestimmt. […] Nach 3 Stunden bei 37 ° C, 5 % CO2 wurden die Prozentsätze apoptotischer Zellen bestimmt.
Die Daten basieren allesamt auf der quantitativen Bestimmung der Apoptose mittels der klassischen morphologischen Kriterien Kernkondensation, Kernfragmentation und Membrane Blebbing nach definierten Inkubationszeiten bei 37°C.
Die Ansätze erfolgten bei einer Zelldichte von 125 000 Zellen/ml in 96-Loch-Platten mit einem Reaktionsvolumen von 100 µl. Alle Ansätze wurden als Doppelansätze geführt und pro Messpunkt wurden mindestens 200 Zellen morphologisch bewertet. Eine detaillierte Aufstellung der verwendeten Medien, Inhibitoren, Zellen ist in den Arbeiten Scheit and Bauer, 2015; Bauer und Zarkovic, 2014; Bauer et al., 2014; Bauer, 2015 beschrieben.
Um zu klären, ob das Hybridmolekül aus Struktur- und Wirkungselementen von Resveratrol und Diallyldisulfid in der Lage ist, Apoptose in Tumorzellen zu induzieren, und dabei zu prüfen, ob sich durch die Kombination der Einzelfunktionen in einem Molekül der Synergieeffekt bündeln ließ, wurden steigende Konzentrationen des Hybridmoleküls zu Magenkarzinomzellen der Linie MKN-45 gegeben. Die als Parallelansätze geführten Ansätze wurden sowohl ohne als auch in Anwesenheit von 2 mM des Singulettsauerstofffängers Histidin inkubiert, um zu prüfen, ob der durch das Hybridmolekül ausgelöste Effekt durch Singulettsauerstoff vermittelt wird. Zum Vergleich wurde das gleiche Experiment mit steigenden Konzentrationen DADS durchgeführt, ebenfalls mit und ohne Histidinzugabe. Nach 3,5 Stunden Inkubation wurde der Prozentsatz apoptotischer Zellen bestimmt.

[2] = molecular target: T1, NOX1 von Magenkarzinomzellen (Homo sapiens, UniProt Q9Y5S8); test: Stimulation of superoxide anion production (shift of Cu/ZnSOD inhibition curve of 3-AT-reactivated apoptosis signalling); assay type: cell-based; conditions: 0.9 µM, MKN-45, 100 mM 3-AT plus Cu/ZnSOD, 5,5 Stunden
T1 construct: endogenous in cells; host or cells: MKN-45
T1 sequence (Q9Y5S8 1-564): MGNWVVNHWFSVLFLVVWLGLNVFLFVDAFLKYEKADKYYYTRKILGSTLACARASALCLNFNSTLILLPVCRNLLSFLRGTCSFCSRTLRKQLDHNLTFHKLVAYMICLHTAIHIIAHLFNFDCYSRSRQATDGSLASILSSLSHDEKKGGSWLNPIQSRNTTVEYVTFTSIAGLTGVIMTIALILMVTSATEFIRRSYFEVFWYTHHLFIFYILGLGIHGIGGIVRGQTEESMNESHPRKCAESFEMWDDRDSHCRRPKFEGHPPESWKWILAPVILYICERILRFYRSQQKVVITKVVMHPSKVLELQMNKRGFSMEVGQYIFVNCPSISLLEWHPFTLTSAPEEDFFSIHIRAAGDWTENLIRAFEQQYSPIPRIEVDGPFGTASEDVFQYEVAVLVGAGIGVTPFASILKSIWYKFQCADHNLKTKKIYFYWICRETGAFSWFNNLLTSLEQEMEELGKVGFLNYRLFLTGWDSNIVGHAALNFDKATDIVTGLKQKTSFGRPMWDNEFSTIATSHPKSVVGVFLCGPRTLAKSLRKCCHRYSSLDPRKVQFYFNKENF
T1 sequence (P13498 1-195 partner): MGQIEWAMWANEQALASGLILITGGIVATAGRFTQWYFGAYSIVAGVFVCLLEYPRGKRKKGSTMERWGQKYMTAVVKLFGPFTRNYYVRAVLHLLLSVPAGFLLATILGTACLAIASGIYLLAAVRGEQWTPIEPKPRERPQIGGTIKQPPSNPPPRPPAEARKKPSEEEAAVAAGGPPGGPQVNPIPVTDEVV
Method: MKN-45-Zellen unter Standardbedingungen erhielten zunächst keinen Zusatz (Kontrolle) oder 0.9 µM Resveratrol oder der Resveratrolderivate HT 161, HT 163, HT 182, die durch unterschiedliche Blockierung der drei vorhandenen OH-Gruppen gekennzeichnet sind. Dabei waren beim Derivat HT 161 alle drei OH-Gruppen durch TBS (tert-Butyldimethylsilyl) blockiert, beim Derivat HT 163 die beiden OH-Gruppen in den Positionen 3'und 5'blockiert und beim Derivat HT 182 selektiv nur die OH-Gruppe in der Position 4'blockiert.
Danach erfolgte die Zugabe von 100 mM 3-AT (Katalasehemmstoff) und der angegebenen Konzentrationen von Cu/ZnSOD. Nach 5,5 Stunden erfolgte die Bestimmung der Prozentsätze apoptotischer Zellen in Doppelansätzen.
Da 3-AT Superoxidanionen-abhängiges interzelluläres Apoptose-auslösendes Signaling reaktiviert, wird der Prozess durch Cu/Zn-SOD blockiert, wobei sich eine typische Glockenkurve ausbildet. Der biochemische Grund dafür wird in Bauer et al., Carcinogenesis 35: 1582-1591, 2014 dargestellt.
Die Messung der extrazellulären Superoxidanionenkonzentration von Tumorzellen sowie die Bestrahlungstechnik mit Niedrigdosis-Gammastrahlung wird in der Arbeit Temme and Bauer, 2013 beschrieben. Die Hemmung der NOD wird bei Scheit and Bauer, 2015, beschrieben. Viele Versuchsergebnisse wurden in den Figuren dargestellt. […]

Q: For `Oc1ccc(C=Cc2cc(O)cc(O)c2)cc1` [Resveratrol], which “Synergieeffekt mit Taxol” value [1] is on record?
A: Synergieeffekt

Q: What about the “Synergieeffekt mit DADS” value ([1]; 3,5 Stunden (Figur 10) or 5,5 Stunden (Figur 15)) of the same molecule?
A: konzentrationsabhängigen beachtlichen Synergieeffekt; also recorded: zur Ausprägung eines Synergieeffektes mit DADS befähigt

Q: And the “stimulierende Wirkung auf die Superoxidanionensynthese” value [2]?
A: Rechtsverschiebung der Kurve
